Results taken from patent publication US4740233A, “Substituted 1,2,4-triazolo[1,5-a]-pyrimidine-2-sulfonamides and compositions and methods of controlling undesired vegetation and suppressing the nitrification of ammonium nitrogen in soil” (The Dow Chemical Company, priority 1986, dated 1988).

Experiments:
[1] = tested on: rice; assay: Postemergent control of plant species; format: in vivo, Oryza sativa; conditions: Oryza sativa, post-emergence, 336 h, read-out: percent postemergent control
Procedure: (§1) In representative operations, each compound to be utilized in a series of tests is dissolved in acetone to one-half of the final volume (twice the final concentration) to be used and the acetone solution in each case is admixed with an equal volume of water containing 0.1 percent by weight of surface active material. The compositions, generally in the nature of an emulsion, were employed to spray separate respective plant species which had been grown to a 2-4 leaf stage in soil of good nutrient content in a greenhouse. The various beds were positioned side by side and exposed to substantially identical conditions of temperature and light. Each bed was maintained so as to prevent any interaction with test compounds in different seed beds. Other plants were left untreated to serve as controls. After treatment, the plants were maintained for about two weeks under greenhouse conditions conducive for good plant growth and watered as necessary. Control refers to the reduction in growth compared to the observed results of the same untreated species.

[2] = tested on: sorghum; assay: Postemergent control of plant species; format: in vivo, Sorghum vulgare; conditions: Sorghum, post-emergence, 336 h, read-out: percent postemergent control
Procedure: as §1

[3] = tested on: pigweed; assay: Postemergent control of plant species; format: in vivo, Amaranthus spp.; conditions: Amaranthus retroflexus, post-emergence, 336 h, read-out: percent postemergent control
Procedure: as §1

[4] = tested on: crabgrass; assay: Postemergent control of plant species; format: in vivo, Digitaria spp.; conditions: Digitaria sanguinalis, post-emergence, 336 h, read-out: percent postemergent control
Procedure: as §1

[5] = tested on: soybean; assay: Postemergent control of plant species; format: in vivo, Glycine max.; conditions: Glycine max, post-emergence, 336 h, read-out: percent postemergent control
Procedure: as §1

[6] = tested on: corn; assay: Postemergent control of plant species; format: in vivo, Zea mays; conditions: Zea mays, post-emergence, 336 h, read-out: percent postemergent control
Procedure: as §1

[7] = tested on: nitrification of ammonium nitrogen; assay: Suppression of nitrification of ammonium nitrogen in soil; conditions: 27° C.
In short: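 Value is % NH4-N remaining after a two-week, 27° C incubation of treated soil held at 1/3 bar tension moisture. Nitrate was measured with an ion-selective electrode after extraction with ammonium sulfate solution and 10 min shaking.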

[8] = tested on: johnson grass; assay: Postemergent control of plant species; format: in vivo, Sorghum halepense; conditions: Sorghum halepense, post-emergence, 336 h, read-out: percent postemergent control
Procedure: as §1

[9] = tested on: rape; assay: Postemergent control of plant species; format: in vivo, Brassica napus; conditions: Brassica napus, post-emergence, 336 h, read-out: percent postemergent control
Procedure: as §1

[10] = tested on: yellow nutsedge; assay: Postemergent control of plant species; format: in vivo, Cyperus esculentus; conditions: Cyperus, post-emergence, 336 h, read-out: percent postemergent control
Procedure: as §1

[11] = tested on: velvetleaf; assay: Postemergent control of plant species; format: in vivo, Abutilon theophrasti; conditions: Abutilon theophrasti, post-emergence, 336 h, read-out: percent postemergent control
Procedure: as §1

[12] = tested on: yellow foxtail; assay: Postemergent control of plant species; format: in vivo, Setaria lutescens; conditions: Setaria, post-emergence, 336 h, read-out: percent postemergent control
Procedure: as §1

[13] = tested on: annual morning glory; assay: Postemergent control of plant species; format: in vivo, Ipomoea spp.; conditions: Ipomoea, post-emergence, 336 h, read-out: percent postemergent control
Procedure: as §1

[14] = tested on: barnyardgrass; assay: Postemergent control of plant species; format: in vivo, Echinochloa crusgalli; conditions: Echinochloa crus-galli, post-emergence, 336 h, read-out: percent postemergent control
Procedure: as §1

[15] = tested on: jimsonweed; assay: Postemergent control of plant species; format: in vivo, Datura stramonium; conditions: Datura stramonium, post-emergence, 336 h, read-out: percent postemergent control
Procedure: as §1

[16] = tested on: cotton; assay: Postemergent control of plant species; format: in vivo, Gossypium spp.; conditions: Gossypium hirsutum, post-emergence, 336 h, read-out: percent postemergent control
Procedure: as §1

[17] = tested on: cocklebur; assay: Postemergent control of plant species; format: in vivo, Xanthium spp.; conditions: Xanthium strumarium, post-emergence, 336 h, read-out: percent postemergent control
Procedure: as §1

[18] = tested on: wild oats; assay: Postemergent control of plant species; format: in vivo, Avena fatua; conditions: Avena fatua, post-emergence, 336 h, read-out: percent postemergent control
Procedure: as §1

[19] = tested on: sugar beet; assay: Postemergent control of plant species; format: in vivo, Beta saccharifera; conditions: Beta vulgaris, post-emergence, 336 h, read-out: percent postemergent control
Procedure: as §1

[20] = tested on: wheat; assay: Postemergent control of plant species; format: in vivo, Triticum aestivum; conditions: Triticum aestivum, post-emergence, 336 h, read-out: percent postemergent control
Procedure: as §1

O=S(=O)(Nc1ccccc1C(F)(F)F)c1nc2ncc(Cl)cn2n1 [Compound 118]
plant injury at 500 ppm [1]: 0% | plant injury at 500 ppm [2]: 0% | pest or weed control at 500 ppm [3]: 70% | pest or weed control at 500 ppm [4]: 60% | plant injury at 500 ppm [5]: 0% | plant injury at 500 ppm [6]: 0% | % NH4-N Remaining After 2 Weeks Incubation ([7]; 0.06 ppm): 30% | % NH4-N Remaining After 2 Weeks Incubation ([7]; 0.25 ppm): 37% | % NH4-N Remaining After 2 Weeks Incubation ([7]; 1 ppm): 61% | % NH4-N Remaining After 2 Weeks Incubation ([7]; 4 ppm): 85% | pest or weed control at 500 ppm [8]: 0% | plant injury at 500 ppm [9]: 80% | pest or weed control at 500 ppm [10]: 70% | pest or weed control at 500 ppm [11]: 80% | pest or weed control at 500 ppm [12]: 20% | pest or weed control at 500 ppm [13]: 70% | pest or weed control at 500 ppm [14]: 0% | pest or weed control at 500 ppm [15]: 100% | plant injury at 500 ppm [16]: 0% | pest or weed control at 500 ppm [17]: 100% | pest or weed control at 500 ppm [18]: 0% | plant injury at 500 ppm [19]: 100%

Cc1cc(C)n2nc(S(=O)(=O)Nc3c(F)c(F)cc(F)c3F)nc2n1 [Compound 90]
plant injury at 500 ppm [1]: 0% | plant injury at 500 ppm [2]: 0% | pest or weed control at 500 ppm [3]: 100% | plant injury at 500 ppm [5]: 50% | plant injury at 500 ppm [6]: 0% | pest or weed control at 500 ppm [8]: 20% | plant injury at 500 ppm [9]: 70% | plant injury at 500 ppm [20]: 0% | pest or weed control at 500 ppm [10]: 0% | pest or weed control at 500 ppm [11]: 50% | pest or weed control at 500 ppm [12]: 70% | pest or weed control at 500 ppm [13]: 30% | pest or weed control at 500 ppm [14]: 0% | pest or weed control at 500 ppm [15]: 70% | plant injury at 500 ppm [16]: 0% | pest or weed control at 500 ppm [17]: 75% | pest or weed control at 500 ppm [18]: 0%

Cc1ccc(NS(=O)(=O)c2nc3nc(C)cc(C)n3n2)c(Cl)c1 [Compound 48]
plant injury at 500 ppm [1]: 0% | plant injury at 500 ppm [2]: 0% | pest or weed control at 500 ppm [4]: 0% | plant injury at 500 ppm [5]: 55% | plant injury at 500 ppm [6]: 0% | % NH4-N Remaining After 2 Weeks Incubation ([7]; 0.01 ppm): 0% | % NH4-N Remaining After 2 Weeks Incubation ([7]; 0.1 ppm): 3% | % NH4-N Remaining After 2 Weeks Incubation ([7]; 1 ppm): 56% | % NH4-N Remaining After 2 Weeks Incubation ([7]; 10 ppm): 93% | pest or weed control at 500 ppm [8]: 0% | plant injury at 500 ppm [9]: 75% | plant injury at 500 ppm [20]: 0% | pest or weed control at 500 ppm [10]: 0% | pest or weed control at 500 ppm [11]: 40% | pest or weed control at 500 ppm [12]: 0% | pest or weed control at 500 ppm [13]: 60% | pest or weed control at 500 ppm [14]: 0% | pest or weed control at 500 ppm [15]: 30% | plant injury at 500 ppm [16]: 10% | pest or weed control at 500 ppm [17]: 70% | pest or weed control at 500 ppm [18]: 0% | plant injury at 500 ppm [19]: 70%

Cc1ccn2nc(S(=O)(=O)N(C(=O)N(C)C)c3c(Cl)cccc3Cl)nc2n1 [Compound 273]
plant injury at 500 ppm [1]: 20% | plant injury at 500 ppm [2]: 40% | pest or weed control at 500 ppm [3]: 100% | pest or weed control at 500 ppm [4]: 100% | plant injury at 500 ppm [5]: 40% | plant injury at 500 ppm [6]: 0% | pest or weed control at 500 ppm [8]: 30% | plant injury at 500 ppm [9]: 100% | plant injury at 500 ppm [20]: 0% | pest or weed control at 500 ppm [10]: 40% | pest or weed control at 500 ppm [11]: 50% | pest or weed control at 500 ppm [12]: 75% | pest or weed control at 500 ppm [13]: 80% | pest or weed control at 500 ppm [14]: 20% | pest or weed control at 500 ppm [15]: 100% | pest or weed control at 500 ppm [17]: 40% | pest or weed control at 500 ppm [18]: 0% | plant injury at 500 ppm [19]: 100%

Cc1cc(C)n2nc(S(=O)(=O)Nc3ccccc3S(C)(=O)=O)nc2n1 [Compound 45]
plant injury at 500 ppm [1]: 50% | plant injury at 500 ppm [2]: 0% | pest or weed control at 500 ppm [4]: 0% | plant injury at 500 ppm [5]: 60% | plant injury at 500 ppm [6]: 0% | % NH4-N Remaining After 2 Weeks Incubation ([7]; 0.01 ppm): 0% | % NH4-N Remaining After 2 Weeks Incubation ([7]; 0.1 ppm): 3% | % NH4-N Remaining After 2 Weeks Incubation ([7]; 1 ppm): 45% | % NH4-N Remaining After 2 Weeks Incubation ([7]; 10 ppm): 94% | pest or weed control at 500 ppm [8]: 0% | plant injury at 500 ppm [9]: 70% | plant injury at 500 ppm [20]: 0% | pest or weed control at 500 ppm [10]: 0% | pest or weed control at 500 ppm [11]: 50% | pest or weed control at 500 ppm [12]: 0% | pest or weed control at 500 ppm [13]: 10% | pest or weed control at 500 ppm [14]: 0% | pest or weed control at 500 ppm [15]: 0% | plant injury at 500 ppm [16]: 0% | pest or weed control at 500 ppm [17]: 25% | pest or weed control at 500 ppm [18]: 0% | plant injury at 500 ppm [19]: 70%

Cc1cc(C)n2nc(S(=O)(=O)Nc3c(Cl)cc(Cl)cc3Cl)nc2n1 [Compound 35, 5,7-dimethyl-N-(2,4,6-trichlorophynyl)-1,2,4-trizaolo[1,5-a]pyrimidine-2-sulfonamide]
plant injury at 500 ppm [1]: 0% | plant injury at 500 ppm [2]: 20% | pest or weed control at 500 ppm [3]: 90% | pest or weed control at 500 ppm [4]: 0% | plant injury at 500 ppm [5]: 70% | plant injury at 500 ppm [6]: 0% | % NH4-N Remaining After 2 Weeks Incubation ([7]; 0.01 ppm): 0% | % NH4-N Remaining After 2 Weeks Incubation ([7]; 0.1 ppm): 3% | % NH4-N Remaining After 2 Weeks Incubation ([7]; 1 ppm): 50% | % NH4-N Remaining After 2 Weeks Incubation ([7]; 10 ppm): 78% | pest or weed control at 500 ppm [8]: 0% | plant injury at 500 ppm [9]: 70% | pest or weed control at 500 ppm [10]: 0% | pest or weed control at 500 ppm [11]: 0% | pest or weed control at 500 ppm [12]: 0% | pest or weed control at 500 ppm [13]: 40% | pest or weed control at 500 ppm [14]: 0% | pest or weed control at 500 ppm [15]: 30% | plant injury at 500 ppm [16]: 0% | pest or weed control at 500 ppm [17]: 95% | pest or weed control at 500 ppm [18]: 0% | plant injury at 500 ppm [19]: 80%
